Series [1] deals with neuromuscular junction. Briefly: Rabbit paw twitch analysis. It is filed as in vivo. Particulars: for ED90 (dose required to depress twitch tension to 10% of control): anesthetized male New Zealand white rabbits, i.v. marginal ear vein. The text has this: In a large series of similar relaxants, the rabbit dose is typically 125% of that in mice. The mechanism of action was also confirmed in this test by observing train-of-four and tetanus fade, post-tetanic potentiation of single twitches and administration of the anticholinesterase drug neostigmine which reverses the relaxation. Reversibility, rapid onset and short duration are important factors to the anesthesiologist.
The following is a brief description of the methodologies used in rabbits to describe neuromuscular blocking activity of the subject compounds. A more detailed description of these methods is presented in "Microcomputer Use in Measuring Onset, Duration, and Recovery from Non-Depolarizing Skeletal Muscle Relaxants in Rabbits", P.D. Thut et al., Drug development Research 5:182, 1985.
Male New Zealand white rabbits weighing between 2.5 and 3.4 kg were anesthetized with pentobarbital (30 mg/kg) and placed on their backs upon a 40° C. water filled temperature regulation pad. Following tracheostomy, the lungs were mechanically ventilated at 28 breaths per minute with room air, using an open system delivering 200 ml/stroke. This ventilation maintained pCO2 at 38 […] and pO2 at 85 mmHg. Direct arterial blood pressure was measured from the right common carotid artery. The test compounds were administered through a cannula placed in the marginal ear vein. Each foreleg was taped to a cushioned plate held in a femur clamp attached to the spinal board rack. The left central digit of each paw was connected to a force displacement transducer for measurement of muscle tension. Nerve stimulation was provided by pairs of pin electrodes placed on both sides of the ulnar nerve at the elbow of both forearms. The right ulnar nerve was stimulated at 1 Hz, 1 pps for 0.5 msec duration. The left ulnar nerve was similarly stimulated, every 15 seconds, with addition of interspersed trains-of-four and tetanizing stimuli. The parameters reported in Table II are: potency (ED90), which is the dose required to depress twitch tension to 10% of its control value; onset (T85%), which is the time from injection until 85% of the maximal drug effect is achieved; duration, which is the time from injection until the train-of-four has recovered to 75%; blood pressure (BP), which is the percentage change of pre-drug blood pressure; and heart rate (HR), which is the percentage change from pre-drug heart rate.

Series [2] has as its system neuromuscular junction. As to the kind of experiment: Mouse inclined screen grip strength test (neuromuscular junction blocking activity). It is filed as in vivo. Particulars: mice on screen inclined 45°; dose required to inhibit grip strength. The method, then: The first step, in mice, establishes a preliminary estimate of the potency and efficacy of the compounds. The animals were placed on a screen, inclined 45° to the horizontal. Effective doses caused the mice to lose their grip and slide down the inclined screen. The dose in mg/kg of body weight required to inhibit grip strength in 100% of the mice tested in a dosage group is reported.

Structures are written as SMILES. Square brackets hold non-standard residues; d marks the D form. Peptide text beside a SMILES is read from it. * marks the point of attachment. dLys(Me3) = C[N+](C)(C)CCCC[C@@H](N)C(=O)O; Boc = CC(C)(C)OC(=O)*

Turning to `COC(=O)[C@@H](CCCC[N+](C)(C)C)NC(=O)[C@@H](Cc1ccccc1)NC(=O)[C@@H](CCCC[N+](C)(C)C)NC(=O)OC(C)(C)C` [Compound B] (Boc-[dLys(Me3)]-[dF]-[dLys(Me3)]-OMe), in the series on neuromuscular junction [1] (rabbit, equi-efficacious dose), the “HR (% change from pre-drug heart rate)” value turned out to be 8.79 % change. In addition, the “BP (% change of pre-drug blood pressure)” value in the series with neuromuscular junction [1] (rabbit, equi-efficacious dose, carotid arterial pressure) is given as -18.83 % change.
`COc1ccc(CC2c3cc(OC)c(OC)cc3CC[N+]2(C)CCC(=O)OCCCCCOC(=O)CC[N+]2(C)CCc3cc(OC)c(OC)cc3C2Cc2ccc(OC)c(OC)c2)cc1OC` (stereo not drawn) [atracurium]: in the series with neuromuscular junction [1], the “ED90 (dose required to depress twitch tension to 10% of control)” value came to 0.05 mg/kg. The “T85% onset (time from injection until 85% of maximal drug effect)” value (“T85% onset” for short) in the series with neuromuscular junction [1] (rabbit, equi-efficacious dose) came to 126.90 s. The “Neuromuscular Junction Blocking Activity (ED90), Mouse” value in the series with neuromuscular junction [2] worked out at 0.63 mg/kg.
Take `CC(=O)O[C@H]1C[C@@H]2CC[C@@H]3[C@H](CC[C@@]4(C)[C@H]3C[C@H]([N+]3(C)CCCCC3)[C@@H]4OC(C)=O)[C@@]2(C)C[C@@H]1[N+]1(C)CCCCC1` [pancuronium]: the “ED90 (dose required to depress twitch tension to 10% of control)” value in the series on neuromuscular junction [1] turned out to be 0.02 mg/kg. Moreover, in the series on neuromuscular junction [1] (rabbit, equi-efficacious dose), the “Duration (time from injection until train-of-four recovered to 75%)” value was determined as 35.50 min and the “T85% onset” value is 147.50 s.
For the compound `CC(=O)O[C@H]1C[C@@H]2CC[C@@H]3[C@H](CC[C@@]4(C)[C@H]3C[C@H]([N+]3(C)CCCCC3)[C@@H]4OC(C)=O)[C@@]2(C)C[C@@H]1N1CCCCC1` [vecuronium], the “ED90 (dose required to depress twitch tension to 10% of control)” value with neuromuscular junction [1] worked out at 0.02 mg/kg. In the series with neuromuscular junction [1] (rabbit, equi-efficacious dose), the “HR (% change from pre-drug heart rate)” value is listed as -9.90 % change and the “T85% onset” value was found to be 97.30 s. Further, the “Neuromuscular Junction Blocking Activity (ED90), Mouse” value in the series on neuromuscular junction [2] was determined as 0.03 mg/kg.

Source of the values: patent publication US5494898A, “Peptide skeletal muscle relaxants” (priority 1994, dated 1996).
